Values joined by “and” are separate entries in the source; they are usually repeats but may differ in a detail not shown here. Identical values can stand only once. Peptide text beside a SMILES is read from it.
Key:
[1] = target: HLA-B1501 (Homo sapiens, UniProt P01889, A329T/A93T/A95T/C349S/D201E/D98Y/E187L/E204Q/E69M/E70A/K202T/N87E/Q94N/R155S/R180W/S121R/S35A/S48A/V306I/V36M/Y140S/Y91S); experiment: Competitive peptide binding assay, CIR-B1501; conditions: HMy2.CIR-B1501 cells, reference Cy5-[…], class from inhibition at 5 and 15 μM, flow cytometry MFI; read-out: Binding affinity with HLA-B1501
Experimental: (§1) Then, competitive peptide binding assays were performed.

[2] = target: HLA-B1301 (Homo sapiens, UniProt P01889, A65T/A93T/A95T/D138N/D201E/D98Y/E176V/E204Q/E69M/E70A/G107R/K202T/L105A/L119I/N104T/N87E/Q94N/R106L/R155S/R169L/R180L/S101N/S121R/S35A/S48T/T118I/V127L/V36M/Y140L/Y91S); experiment: Competitive peptide binding assay, CIR-B1301; conditions: HMy2.CIR-B1301 cells, reference Cy5-[…], class from inhibition at 5 and 15 μM, flow cytometry MFI; read-out: Binding affinity with HLA-B1301
Experimental: as §1

[3] = target: HLA-B4601 (Homo sapiens, UniProt P01889, A329T/A93R/C349S/D201E/E100V/E187L/E204Q/E69M/E70A/I90K/K202T/N87E/R155S/R180W/S121R/S35A/S48A/V306I/V36M/Y140S); experiment: Competitive peptide binding assay, CIR-B4601; conditions: for IC50: HMy2.CIR-B4601 cells, reference Cy5-[…], class from inhibition at 5 and 15 μM, flow cytometry MFI, read-out: Binding affinity with HLA-B4601
Experimental: as §1

[4] = target: HLA-B4403 (Homo sapiens, UniProt P01889, A223V/A65T/A93T/A95T/D201E/D98Y/E176V/E187L/E204Q/E69K/G107R/H137Y/K202T/L105A/L119I/N104T/N87E/Q56L/Q94N/R106L/R155S/R180L/S101N/S121R/S35A/S48T/T118I/V36M/W191S/Y140D/Y91S); experiment: Competitive peptide binding assay, CIR-B4403; conditions: HMy2.CIR-B4403 cells, reference Cy5-CYMEAVAL, class from inhibition at 5 and 15 μM, flow cytometry MFI; read-out: Binding affinity with HLA-B4403
Experimental: as §1

[5] = target: HLA-B1302 (Homo sapiens, UniProt P01889, A65T/A93T/A95T/D138N/D201E/D98Y/E176V/E204Q/E69M/E70A/G107R/K202T/L105A/L119W/N104T/N87E/Q94N/R106L/R155S/R169L/R180L/S101N/S121T/S35A/S48T/V127L/V36M/Y140L/Y91S); experiment: Competitive peptide binding assay, CIR-B1302; conditions: HMy2.CIR-B1302 cells, reference Cy5-MMWYWGPSL, class from inhibition at 5 and 15 μM, flow cytometry MFI; read-out: Binding affinity with HLA-B1302
Experimental: as §1

[6] = target: HLA-B3501 (Homo sapiens, UniProt P01889, A329T/A93T/A95T/C349S/D201E/D98Y/E176V/E187L/E204Q/E69T/I218V/K202T/L119I/Q94N/R155S/R180L/S121R/S35A/S48A/T118I/V127L/V306I/V36M/Y140S/Y91F); experiment: Competitive peptide binding assay, CIR-B3501; conditions: HMy2.CIR-B3501 cells, reference Cy5-[…], class from inhibition at 5 and 15 μM, flow cytometry MFI; read-out: Binding affinity with HLA-B3501
Experimental: as §1

[7] = target: HLA-B4001 (Homo sapiens, UniProt P01889, A65T/A93T/A95T/D138N/D98Y/E176V/E69K/N87E/Q56L/Q94N/R180L/S121R/S35A/S48T/T167S/V36M/W171L/Y33H/Y91S); experiment: Competitive peptide binding assay, CIR-B4001; conditions: HMy2.CIR-B4001 cells, reference Cy5-[…], class from inhibition at 5 and 15 μM, flow cytometry MFI; read-out: Binding affinity with HLA-B4001
Experimental: as §1

[8] = target: HLA-B5801 (Homo sapiens, UniProt P01889, A329T/C349S/D201E/D98Y/E176V/E187L/E204Q/E69T/G107R/I218V/I90N/K202T/L105A/L119I/N104I/N87E/Q89R/Q94S/R106L/R155S/R180L/R86G/S101N/S121R/S35A/S48A/T118I/V127L/V306I/V36M/Y140S/Y91M); experiment: Competitive peptide binding assay, CIR-B5801; conditions: HMy2.CIR-B5801 cells, reference Cy5-[…], class from inhibition at 5 and 15 μM, flow cytometry MFI; read-out: Binding affinity with HLA-B5801
Experimental: as §1

[9] = target: HLA-B1502 (Homo sapiens, UniProt P01889, A329T/A93T/A95T/C349S/D201E/D98Y/E187L/E204Q/E69M/E70A/H137Y/K202T/L119I/Q94N/R155S/R180L/S121R/S35A/S48A/T118I/V306I/V36M/Y140S/Y91S); experiment: Competitive peptide binding assay, CIR-B1502; conditions: HMy2.CIR-B1502 cells, reference Cy5-[…], class from inhibition at 5 and 15 μM, flow cytometry MFI; read-out: Binding affinity with HLA-B1502
Experimental: as §1

Structure (SMILES) | IC50 [1] [µM] | IC50 [2] [µM] | IC50 [3] [µM] | IC50 [4] [µM] | IC50 [5] | IC50 [6] [µM] | IC50 [7] [µM] | inhibition at 5 µM ([3]; read-out: Inhibition % of Cy5-reference peptide binding, CIR-B4601, 5μM peptide) [%] | inhibition at 15 µM ([3]; read-out: Inhibition % of Cy5-reference peptide binding, CIR-B4601, 15μM peptide) [%] | IC50 [8] [µM] | IC50 [9] [µM]
CC(C)C[C@H](NC(=O)[C@H](CC(N)=O)NC(=O)[C@H](CCCCN)NC(=O)[C@@H](NC(=O)[C@H](CCCNC(=N)N)NC(=O)[C@H](CO)NC(=O)[C@H](Cc1ccc(O)cc1)NC(=O)[C@@H](NC(=O)[C@@H](N)Cc1ccc(O)cc1)C(C)C)C(C)C)C(=O)O [Epitope Y3] (H-YVYSRVKNL-OH; N-terminus and C-terminus assumed) | 5 to 15 | > 15 | > 15 | < 5 | > 15 µM | > 15 |  |  |  |  | 
CC[C@H](C)[C@H](NC(=O)[C@H](C)NC(=O)[C@H](C)NC(=O)[C@H](CC(N)=O)NC(=O)[C@H](CC(N)=O)NC(=O)[C@H](C)NC(=O)[C@@H]1CCCN1C(=O)[C@@H](N)CC(N)=O)C(=O)N[C@H](C(=O)O)C(C)C [Epitope Y18] (H-NPANNAAIV-OH; N-terminus and C-terminus assumed) | 5 to 15 |  | > 15 | > 15 |  |  | > 15 | 12.5 | 42.5 |  | 
CC[C@H](C)[C@H](NC(=O)[C@H](CCCNC(=N)N)NC(=O)[C@H](CC(C)C)NC(=O)[C@H](CCSC)NC(=O)[C@H](CC(N)=O)NC(=O)[C@@H]1CCCN1C(=O)[C@H](CCSC)NC(=O)[C@H](C)NC(=O)[C@@H](N)CCCNC(=N)N)C(=O)O [Epitope Y77] (H-RAMPNMLRI-OH; N-terminus and C-terminus assumed) |  | > 15 | 5 to 15 | > 15 | < 5 µM | > 15 |  |  |  | 5 to 15 | 
CC[C@H](C)[C@H](NC(=O)[C@H](CC(C)C)NC(=O)[C@H](CS)NC(=O)CNC(=O)[C@H](C)NC(=O)[C@H](CCCNC(=N)N)NC(=O)[C@@H](NC(=O)[C@H](CCC(N)=O)NC(=O)[C@@H](N)Cc1ccccc1)[C@@H](C)O)C(=O)O [Epitope Y89] (H-FQTRAGCLI-OH; N-terminus and C-terminus assumed) | > 15 |  | > 15 | > 15 | < 5 µM and > 15 µM | > 15 | 5 to 15 |  |  | > 15 | 
CC[C@H](C)[C@H](NC(=O)[C@H](CC(C)C)NC(=O)[C@H](CCC(N)=O)NC(=O)[C@H](CCC(N)=O)NC(=O)[C@@H](NC(=O)[C@@H](NC(=O)[C@H](Cc1ccc(O)cc1)NC(=O)[C@@H](NC(=O)[C@H](CCC(N)=O)NC(=O)[C@@H](N)CC(C)C)[C@@H](C)O)C(C)C)[C@@H](C)O)C(=O)O [Epitope Y118] (H-LQTYVTQQLI-OH; N-terminus and C-terminus assumed) |  |  | > 15 | 5 to 15 | < 5 µM and 5 to 15 µM | > 15 |  |  |  | > 15 | > 15

Source: PMC12133982, “Predominant T-cell epitopes of SARS-CoV-2 restricted by multiple prevalent HLA-B and HLA-C allotypes in Northeast Asia” (Frontiers in Immunology, 2025)
